Where a SMILES comes first, the peptide text is derived from it. The star is where a group is joined. X1 = CCCCCCCCCCCCCCCC(=O)OCC(C*)OC(=O)CCCCCCCCCCCCCCC; Palmitoyl = CCCCCCCCCCCCCCCC(=O)*

Data set [1] deals with extracellular markers CD4, CD8, CD80, CD86, CD40. Nature of the data set: Immunophenotyping, staining for extracellular markers (flow cytometry). It counts as cell-based. Here is the method:
2.2.5 Immunophenotyping—Staining for extracellular markers: Staining was as per the manufacturer's protocol and run on a BD FACSVerse flow cytometer (cat nos. 557596, 553047, 560016 and 553723; BD Biosciences, USA). Compensation was established using BD Biosciences compensation beads. Post acquisition flow cytometry analysis was performed using FACS Suite software and data were represent in the mean fluorescence intensity values.
Background: A flow cytometer gives signals particle by particle.

The test system of a further data set is HBsAg antigen. Nature of the data set: Antibody titre against HBsAg antigen (ELISA). It counts as in vivo, BALB/c mice. Conditions: 28th day; for IgG titer: serum anti-HBsAg; for IgG1 titer / IgG 2a titer: serum, HBsAg immunized mice. Here is the method: (§1) 1.2.2 Antibody titre against OVA antigen: From the immunized mice retro-orbital sampling or retro-orbital blood was collected on 14th and 28th day before sacrifice. Serum was separated by centrifugation at 12,500 rpm for 5 min. Transferred to a clean centrifuge tube and store at −80 until used. The plates were coated with OVA (1 μg/well) in carbonate buffer. Plates were incubated at 4° C., overnight. They were then washed 3 times with PBS/Tween, and non-specific binding sites were blocked by adding 200 μl of blocking solution. Plates were incubated at room temperature for 1 h. Then 3 times wash is done, diluted standards and samples to desired concentrations in blocking solution were added to the plates. Incubate at 37° C. for 1 h or at 4° C., overnight. Plates were washed 3 times with PBS/Tween. Avidin-Horseradish Peroxidase (Av-HRP, cat no. 45210, Biolegend, USA) was diluted and added. Incubated at room temperature for 30 min. Plates were washed 3 times with PBS/Tween. Substrate was added, mix equal volumes of TMB Reagent A and B(cat no. 421101, Biolegend, USA) immediately prior to use. Plates were incubated at room temperature (4-30 min) for color development. Color reaction was stopped by adding 50 μl of stop solution. Optical density (OD) was read at 450 nm.
(§2) 1.2.3 Isotypes of antigen specific antibody: The plates were coated with diluted unlabeled capture antibody to a final concentration of 0.5-8 μg/ml. Plates were incubated at 4° C. overnight. They were then washed 3 times with PBS/Tween, and non-specific binding sites were blocked by adding 200 μl of blocking solution. Plates were incubated at room temperature for 1 h. Washing is done thrice, diluted standards and samples to desire concentrations in blocking solution were added to the plates. Incubate at room temperature for 2-4 h or at 4° C., overnight. Plates were washed 3 times with PBS/Tween. Detection antibodies were added 0.25-2 μg/ml in blocking buffer, followed by incubation at room temperature for 1 h. Plates were washed 3 times with PBS/Tween. Avidin-Horseradish Peroxidase (Av-HRP) was diluted and added. Incubated at room temperature for 30 min. Plates were washed 5 times with PBS/Tween. Substrate was added, mix equal volumes of TMB Reagent A and B immediately prior to use. Plates were incubated at room temperature (0.4-30 min) for color development. Color reaction was stopped by adding 50 μl of stop solution. Optical density (OD) was read at 450 nm.
(§3) Male BALB/c mice were immunized with different groups according to various concentrations of (conjugates)preferably 2 to 80 μg/dose, more preferably 6 to 50 μg/dose, most preferably 8 to 40 μg/dose, along with PBS and HBsAg antigen control. A booster dose was given on 14th day and sacrificed 2 weeks after booster.
2.2.3 Antibody titre against HBsAg antigen: Antibody titer was determined by the same method as described in the Example 13 except that HBsAg antigen.
Antibody titres IgG, IgG1 and IgG2a were measured by sandwich ELISA.
For orientation: ELISA stands for enzyme-linked immunosorbent assay.

Data set [2] concerns cytokines IL-2, IL-12, IFN-γ, TNF-α, IL-10, IL-6. Nature of the data set: Cytokine expression on immunization with OVA (ELISA). In kind it is in vivo, BALB/c mice. As to conditions: OVA antigen. Here is the method:
(§4) 13.1 Preparation and immunization of the vaccine: Male BALB/c mice (Procured from laboratory animal facility of National Institute of Nutrition, Hyderabad, IAEC No. IICT/Bio/fox/PG/1/02/2013) were immunized subcutaneously with different groups according to various concentrations of conjugates covered in examples 1-12, preferably 2 to 80 μg/dose, more preferably 6 to 50 μg/dose, most preferably 8 to 40 μg/dose, along with PBS (car no. TS1006, Himedia)and antigen control. A booster dose was given on 14th day and sacrificed 2 weeks after booster.
(§5) 1.2.2 Cytokine expression on immunization: ELISA was carried out by Opti Elisa Kit (cat no. 560485, BD biosciences, USA). Briefly, 96-Well plates were coated with capture antibody dissolved in coating buffer. Wells were blocked with PBS containing 0.05% Tween-20 for 1h at RT. After blocking, 100 μL/well of supernatant was added and incubated for overnight at 4° C. After washing, biotinylated secondary antibody was added along with enzyme. Plates were incubated for 1h at RT. Then plates were washed and substrate solution was added. The reaction was stopped and the absorbance was measured at 450 nm in ELISA reader (BioTek-Elx800).

The next data set concerns the target T1, Human TLR-2 (Homo sapiens, UniProt O60603).
T1 construct: host or cells: HEK-Blue hTLR2 cells (HEK293-derived reporter line)
Nature of the data set: Human TLR-2 reporter gene assay (NF-κB induction, SEAP). In kind it is cell-based. As to conditions: HEK-Blue hTLR2 cells, 24 h. Here is the method: 2.2.4 Human TLR-2 reporter gene assays (NF-κB induction): The assay was performed as per the manufacturer's instructions. HEK-Blue™ hTLR2 cells (cat no. hkb-htlr2, Invivogen, USA, 25,000 cells per well) were harvested in HEK-Blue™ selection medium containing normocin treated with the compounds and the plate were incubated at 37° C. in 5% CO2 for 24 h. SEAP (secreted embryonic alkaline phosphatase) can be observed with naked eye and determined using a spectrophotometer at 620-655 nm.
Background: In a reporter assay the amount or activity of a reporter protein is the signal.

For data set [3], the system named is Splenocytes. The experiment in a line: OVA stimulated splenocyte proliferation (MTT) in immunized mice. It counts as in vivo, BALB/c mice. Conditions: OVA antigen; mice immunized s.c., conjugates 2-80 μg, booster 14th day; MTT after 48 h. As to the method:
as §4
(§6) 1.2.1 Proliferation of immune cells: Splenocytes were seeded into 96 well flat bottom microtiter plates having 1×10^5 cells/well in complete RPMI-1640 medium (cat no. AT028-1L, Himedia). Plates were incubated at 37° C., with 5% CO2 incubator. After 48 h of incubation 20 μl of Triazolyl blue Tetrazolium Bromide (MTT) (cat no. M2128, Sigma-Aldrich. St. Louis, Mo.) solution (5 mg/mL) was added to each well, incubated for next 4 h. Untransformed MTT was removed from each well by aspirating the supernatant (180 μL)and replaced with DMSO (Sigma-Aldrich, St. Louis, Mo.). The absorbance was read at 630 nm after 15 min.
All triazolyl adjuvant conjugates induced splenocyte proliferation responses at the dose of 2-80 μg.

The test system of data set [4] is Splenocytes. The experiment in a line: HBsAg stimulated splenocyte proliferation in immunized mice. It counts as in vivo, BALB/c mice. Conditions: HBsAg antigen; conjugates 2-80 μg. As to the method: as §6
Vaccine was formulated with Hepatitis B antigen (HBsAg, cat. No HBS-870-c, ProspecBio, Israel))alone or with various adjuvants like Pam3CSK4 and their analogues. The adjuvanticity induced by each of the vaccine is determined by antibody titre, cytokine production and proliferation of immune cells.
as §3
2.2.1 Proliferation of immune cells: Splenocyte proliferation was measured by the same method as described in Example 13 except that HBsAg antigen. […]

The next data set can be described thus: in vitro. Conditions: rat, NRK-49F rat kidney cells. In kind it is cell-based. As to the method: 2.2.6 In vitro cytotoxicity evaluation by MTT assay: Rat kidney cell line NRK-49F (NCCS, Pune) was exposed to varying doses of test compounds in the range of […], to determine the toxicity after 48 h of incubation. The colorimetric MTT assay was used to evaluate cell viability which is determined based on reduction of MTT to blue formazan crystals by the mitochondrial succinate dehydrogenase enzymes of viable cells.

Data set [5] concerns cytokines IL-2, IL-12, IFN-γ, TNF-α, IL-10, IL-6. Nature of the data set: Cytokine expression on immunization with HBsAg (ELISA). It counts as in vivo, BALB/c mice. Conditions: HBsAg antigen. As to the method: as §5, §3
2.2.2 Cytokine expression on immunization: Cytokine expression was measured by the same method as described in the Example 13 except that HBsAg antigen.

In a further data set the test system is OVA antigen. The experiment in a line: Antibody titre against OVA antigen and isotypes (ELISA). As to conditions: 28th day; for IgG titer: serum anti-OVA; for IgG1 titer / IgG 2a titer: serum, OVA immunized mice. It counts as in vivo, BALB/c mice. Here is the method:
as §4, §1, §2
IgG1 and IgG2a were measured by sandwich ELISA.

Another data set relates to rat RBCs. It counts as cell-based. As to conditions: red cells of rat. As to the method:
2.2.7 Hemolytic assay: Different concentration of test compounds were tested with fixed volume concentration of rat RBCs. After incubation for 30 min the percentage of hemolysis was determined by comparing the absorbance (k=540 nm) of the supernatant with that of distilled water as positive control.

T1 sequence (O60603 21-784): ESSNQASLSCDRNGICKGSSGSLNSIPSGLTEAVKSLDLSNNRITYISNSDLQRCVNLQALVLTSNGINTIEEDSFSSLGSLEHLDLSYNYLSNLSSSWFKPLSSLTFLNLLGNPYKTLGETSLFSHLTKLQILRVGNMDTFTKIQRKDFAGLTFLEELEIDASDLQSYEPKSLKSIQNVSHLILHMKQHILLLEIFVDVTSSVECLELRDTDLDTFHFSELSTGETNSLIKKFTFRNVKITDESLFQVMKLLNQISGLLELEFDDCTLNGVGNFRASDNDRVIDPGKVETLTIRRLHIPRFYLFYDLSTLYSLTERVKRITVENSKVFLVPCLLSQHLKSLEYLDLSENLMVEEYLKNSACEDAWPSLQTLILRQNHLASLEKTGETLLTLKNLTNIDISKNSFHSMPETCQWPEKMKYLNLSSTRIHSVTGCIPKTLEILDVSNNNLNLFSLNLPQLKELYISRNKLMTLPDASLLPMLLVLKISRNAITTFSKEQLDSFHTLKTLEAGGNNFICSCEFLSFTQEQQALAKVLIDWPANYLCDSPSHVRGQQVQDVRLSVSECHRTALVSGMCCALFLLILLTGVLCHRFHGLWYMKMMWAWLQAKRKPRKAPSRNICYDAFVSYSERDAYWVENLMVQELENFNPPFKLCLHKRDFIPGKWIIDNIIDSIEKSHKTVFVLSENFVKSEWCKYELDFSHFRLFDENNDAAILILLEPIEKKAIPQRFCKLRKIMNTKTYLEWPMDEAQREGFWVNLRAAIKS

For `CCCCCCCCCCCCCCCC(=O)N[C@@H](CSCC(COC(=O)CCCCCCCCCCCCCCC)OC(=O)CCCCCCCCCCCCCCC)C(=O)N[C@@H](CO)C(=O)N[C@@H](CCCCN)C(=O)N[C@@H](CCCCN)C(=O)N[C@@H](CCCCN)C(=O)N[C@@H](CCCCN)C(=O)O` (stereo partly shown) [Standard (VacciGrade Pam3Cys) control] (Palmitoyl-C(X1)SKKKK-OH; N-terminus and C-terminus assumed), in data set [1], the “Immunophenotyping (MFI) CD4” value is on record as 1400-3000 MFI, the “Immunophenotyping (MFI) CD8” value is listed as 2000-4000 MFI, the “Immunophenotyping (MFI) CD40” value is reported as 1000-2500 MFI and the “Immunophenotyping (MFI) CD80” value is listed as 1600-2500 MFI. Moreover, the “Immunophenotyping (MFI) CD86” value in data set [1] is on record as 1200-2000 MFI. Also, in the data set on HBsAg antigen, the IgG titer is 204800-819200, the IgG1 titer was 102400-409600 and the “IgG 2a titer” value is 204800-3276800. In addition, in [2], the “Serum cytokines IFN-γ” value is 100 to 140 pg/mL, the “Serum cytokines IL-2” value lay within 100 to 150 pg/mL, the “Serum cytokines IL-6” value lay within 100 to 120 pg/mL and the “Serum cytokines IL-10” value is 180 to 220 pg/mL. Moreover, in [2], the “Serum cytokines IL-12” value was 80 to 140 pg/mL and the “Serum cytokines TNF-α” value lay within 150 to 200 pg/mL. Further, the “TLR Ligand activity, SEAP Absorbance (655 nm)” value on Human TLR-2 was 1.2-2. In addition, the Splenocyte proliferation with Splenocytes [3] is given as 200-350. For the same molecule, in the data set with Splenocytes [4], the Splenocyte proliferation was 250-500. Moreover, the viability at 48 h in the data set “in vitro” fell in the range of 95 to 100%. In data set [5], the “Serum cytokines IFN-γ” value was 250 to 325 pg/mL, the “Serum cytokines IL-2” value lay in the range of 250 to 300 pg/mL, the “Serum cytokines IL-6” value was in the range of 250 to 295 pg/mL and the “Serum cytokines IL-10” value was in the range of 325 to 475 pg/mL. For the same molecule, in [5], the “Serum cytokines IL-12” value was 150 to 250 pg/mL and the “Serum cytokines TNF-α” value lay in the range of 275 to 400 pg/mL. In the data set on OVA antigen, the IgG titer is 102400-819200, the IgG1 titer was 102400-1638400 and the “IgG 2a titer” value is 102400-3276800. In addition, the “% Hemolysis” value in the data set on rat RBCs is reported as 2-5%.

B1: OVA control: experimental weak antigen ovalbumin (cat no. A5503, Sigma-Aldrich) given alone as antigen control (protein, UniProt P01012 2-386, looked up)
Ovalbumin: GSIGAASMEFCFDVFKELKVHHANENIFYCPIAIMSALAMVYLGAKDSTRTQINKVVRFDKLPGFGDSIEAQCGTSVNVHSSLRDILNQITKPNDVYSFSLASRLYAEERYPILPEYLQCVKELYRGGLEPINFQTAADQARELINSWVESQTNGIIRNVLQPSSVDSQTAMVLVNAIVFKGLWEKAFKDEDTQAMPFRVTEQESKPVQMMYQIGLFRVASMASEKMKILELPFASGTMSMLVLLPDEVSGLEQLESIINFEKLTEWTSSNVMEERKIKVYLPRMKMEEKYNLTSVLMAMGITDVFSSSANLSGISSAESLKISQAVHAAHAEINEAGREVVGSAEAGVDAASVSEEFRADHPFLFCIKHIATNAVLFFGRCVSP
With B1, in the data set with HBsAg antigen, the IgG titer is recorded as 12800-51200, the IgG1 titer is given as 12800-102400 and the “IgG 2a titer” value is on record as 12800-51200. Moreover, in the data set with OVA antigen, the IgG titer is listed as 6400-12800, the IgG1 titer is 6400-25600 and the “IgG 2a titer” value is listed as 6400-12800.

A word on the viability: it is a per cent measure of how many cells are alive, often set against a control. The low end stands for a greater loss of cells, the high end for better survival.

The record behind these values is US9969763B2, “1,2,3-triazole-tethered carbohydrate-di and tri lipidated cysteine conjugates useful as vaccine adjuvants and process for preparation thereof” (Council of Scientific and Industrial Research, priority 2015, dated 2018).
